Reference: US20240174637A1, “DEGRADERS OF GRK2 AND USES THEREOF” (Sonata Therapeutics, Inc., priority 2021, published 2024)
Where a name gives a salt, the structure may show the parent alone.

Legend:
[1] = target: T1, GRK2 (Homo sapiens, UniProt P25098); assay: GRK2 Degradation Assay and Western Blot in PAXF1657 cells; format: cell-based; design: endogenous in cells; host or cells: PAXF1657; conditions: for inhibition at 0.3 µM: Conc 0.3 uM; for inhibition at 0.3 µM / inhibition at 1 µM / inhibition at 3 µM: read-out: Degradation Assay - 3 point: Degradation (%); for inhibition at 1 µM: Conc 1 uM; for inhibition at 3 µM: Conc 3 uM; for DC50: PAXF1657, 24 h, read-out: Degradation Assay - Full Dose Response: IC50 (uM) [cell line: PAXF1657, time point: 24 h]
T1 sequence (P25098 1-689): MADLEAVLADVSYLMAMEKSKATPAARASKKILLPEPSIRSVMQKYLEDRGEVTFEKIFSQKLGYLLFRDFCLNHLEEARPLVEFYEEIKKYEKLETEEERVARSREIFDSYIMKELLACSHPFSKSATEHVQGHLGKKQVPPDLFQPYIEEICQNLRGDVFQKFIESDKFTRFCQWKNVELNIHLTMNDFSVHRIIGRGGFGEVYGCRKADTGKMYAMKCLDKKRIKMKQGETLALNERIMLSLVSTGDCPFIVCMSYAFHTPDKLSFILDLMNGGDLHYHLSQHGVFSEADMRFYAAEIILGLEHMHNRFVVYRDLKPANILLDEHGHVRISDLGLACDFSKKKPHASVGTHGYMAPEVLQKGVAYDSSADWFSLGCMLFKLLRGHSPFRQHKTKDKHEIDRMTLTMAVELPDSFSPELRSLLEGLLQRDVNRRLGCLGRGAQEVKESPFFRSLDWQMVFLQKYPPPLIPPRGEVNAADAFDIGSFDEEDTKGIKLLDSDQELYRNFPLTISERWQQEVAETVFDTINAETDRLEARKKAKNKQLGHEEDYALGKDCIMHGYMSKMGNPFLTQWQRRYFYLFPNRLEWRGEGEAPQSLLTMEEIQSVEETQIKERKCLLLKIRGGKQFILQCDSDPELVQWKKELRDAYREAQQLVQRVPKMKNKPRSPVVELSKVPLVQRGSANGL
Outline: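 GRK2 degradation judged by immunoblot: NP40 lysates separated by SDS-PAGE and probed for GRK2 and β-actin, with HRP/ECL detection. Lysates came from PAXF1657 cells exposed to 0–10 μM compound for 6–24 h after reaching 70% confluency.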

[2] = tested on: PAXF1657 EV; assay: 7-day cellular proliferation assay (CellTiter-Glo), PAXF1657 EV; format: cell-based; conditions: proliferation, read-out: GeoMean IC50 (UM) PAXF1657 EV
Outline: (§1)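 Viability by CellTiter-Glo after 7 days at 37° C., with compound-containing media replaced on day 3. Cells (500/well, RPMI1640 + 10% FBS) were PAXF1657 pairs: GRK2 overexpression vs empty vector, or CRISPR GRK2 knockout vs non-targeting clones; doses 30 μM-0.0002 μM final, 10 points, 0.3% DMSO.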

[3] = target: T1, GRK2; assay: GRK2 Inhibition Assay (TR-FRET, Example 1); format: biochemical; conditions: Table 4; Example 1 assay; read-out: Enzymatic GRK2 IC50: Av IC50 GRK2
Description: Assay: GRK2 enzyme (1 nM final concentration) was diluted in 25 mM HEPES, 10 mM MgCl2, 2 mM DTT, 0.01% Tween-20, and 1 mM EGTA. Then the GRK2 mixture was added into ProxiPlate-384 white plate and pre-incubated for 30 min with test compounds at room temperature. ATP (7 μM final concentration) and Ulight TopoIIα (50 nM final concentration) were added into the assay plate to initiate the reaction and the mixture was incubated at room temperature for 90 min. Then, Eu anti-TopoIIα (0.12 nM final concentration), BSA (0.01% final concentration), and EDTA (11 mM final concentration) in LANCE assay buffer were added into each well. After 60 min incubation time at room temperature, TR-FRET signal was measured by EnVision plate reader.

[4] = tested on: PAXF1657 KO Clone #4; assay: 7-day cellular proliferation assay (CellTiter-Glo), PAXF1657 KO Clone #4; format: cell-based; conditions: proliferation, read-out: GeoMean IC50 (uM) PAXF1657 KO Clone #4
Outline: as §1

| Structure (SMILES) | inhibition at 0.3 µM [1] [%] | inhibition at 1 µM [1] [%] | inhibition at 3 µM [1] [%] | IC50 [2] [nM] | IC50 [3] [nM] | IC50 [4] [µM] | DC50 [1] [µM] |
| --- | --- | --- | --- | --- | --- | --- | --- |
| C[C@@H](NC(=O)c1cccc(NCc2nnc(-c3ccncn3)n2C)c1)c1ccc(OCCCCN2CCN(c3ccc4c(c3)CN(C3CCC(=O)NC3=O)C4=O)CC2)cc1 (stereo partly drawn) [Compound D175, N-((1R)-1-(4-(4-(4-(2-(2,6-dioxopiperidin-3-yl)-1-oxoisoindolin-5-yl)piperazin-1-yl)butoxy)phenyl)ethyl)-3-((4-methyl-5-(pyrimidin-4-yl)-4H-1,2,4-triazol-3-yl)methylamino)benzamide hydrochloride] | 87.7 | 89.2 | 82.8 | < 0.458 | 10.3 | > 30 | – |
| CN[C@@H](C)C(=O)N[C@H](C(=O)N1CCC[C@H]1c1nc(C(=O)c2cccc(OCc3cn(CCCCCCOc4cccc([C@@H](C)NC(=O)c5cccc(NCc6nnc(-c7ccncn7)n6C)c5)c4)nn3)c2)cs1)C1CCCCC1 [Compound D105] | 87 | 86 | 85 | 110 | 8.71 | 3.72 | – |
| C[C@@H](NC(=O)c1cccc(NCc2nnc(-c3ccncn3)n2C)c1)c1cccc(OCCCCCOCCCOCC(=O)Nc2cccc3c2CN(C2CCC(=O)NC2=O)C3=O)c1 (stereo partly drawn) [Compound D183, N-((1R)-1-(3-((5-(3-(2-((2-(2,6-dioxopiperidin-3-yl)-1-oxoisoindolin-4-yl)amino)-2-oxoethoxy)propoxy)pentyl)oxy)phenyl)ethyl)-3-(((4-methyl-5-(pyrimidin-4-yl)-4H-1,2,4-triazol-3-yl)methyl)amino)benzamide] | 82 | 86.5 | 94.6 | 110 | 16.7 | > 30 | – |
| C[C@@H](NC(=O)c1cccc(NCc2nnc(-c3ccncn3)n2C)c1)c1cccc(OCCCCCCOCCOCCNc2cccc3c2CN(C2CCC(=O)NC2=O)C3=O)c1 (stereo partly shown) [Compound D143] | 88 | 82 | 83 | 110 | 10.4 | 5.32 | 0.11 |
| C[C@@H](NC(=O)c1cccc(NCc2nnc(-c3ccncn3)n2C)c1)c1cccc(C(=O)N2CCC(CN3CCN(c4ccc5c(c4)CN(C4CCC(=O)NC4=O)C5=O)CC3)CC2)c1 (stereo partly drawn) [Compound D122, N-((1R)-1-(3-(4-((4-(2-(2,6-dioxopiperidin-3-yl)-1-oxoisoindolin-5-yl)piperazin-1-yl)methyl)piperidine-1-carbonyl)phenyl)ethyl)-3-((4-methyl-5-(pyrimidin-4-yl)-4H-1,2,4-triazol-3-yl)methylamino)benzamide hydrochloride] | 84.9 | 90.6 | 92.5 | 100 | 12.3 | > 30 | – |
| C[C@@H](NC(=O)c1cccc(NCc2nnc(-c3ccncn3)n2C)c1)c1ccc(OCCCCCCOCCOCCOCCC(=O)N2CCN(c3cc4c(cc3F)C(=O)N(C3CCC(=O)NC3=O)C4=O)CC2)cc1 (stereo partly drawn) [Compound D137, N-((1R)-1-(4-(6-(2-(2-(3-(4-(2-(2,6-dioxopiperidin-3-yl)-6-fluoro-1,3-dioxoisoindolin-5-yl)piperazin-1-yl)-3-oxopropoxy)ethoxy)ethoxy)hexyloxy)phenyl)ethyl)-3-((4-methyl-5-(pyrimidin-4-yl)-4H-1,2,4-triazol-3-yl)methylamino)benzamide] | 71.2 | 79.2 | 80.4 | 140 | 12.5 | 22.8 | – |
| C[C@@H](NC(=O)c1cccc(NCc2nnc(-c3ccncn3)n2C)c1)c1cccc(OCCCCCCOCCOCC(=O)N2CCN(c3cc4c(cc3F)C(=O)N(C3CCC(=O)NC3=O)C4=O)CC2)c1 (stereo partly drawn) [Compound D139, N-((1R)-1-(3-(6-(2-(2-(4-(2-(2,6-dioxopiperidin-3-yl)-6-fluoro-1,3-dioxoisoindolin-5-yl)piperazin-1-yl)-2-oxoethoxy)ethoxy)hexyloxy)phenyl)ethyl)-3-((4-methyl-5-(pyrimidin-4-yl)-4H-1,2,4-triazol-3-yl)methylamino)benzamide] | 86 | 92 | 95 | 200 | 13.6 | 26.6 | 0.23 |
| C[C@@H](NC(=O)c1cccc(NCc2nnc(-c3ccncn3)n2C)c1)c1cccc(OCCCCCOCCCOCCNc2ccc3c(c2)CN(C2CCC(=O)NC2=O)C3=O)c1 (stereo partly drawn) [Compound D171, N-((1R)-1-(3-(5-(3-(2-(2-(2,6-dioxopiperidin-3-yl)-1-oxoisoindolin-5-ylamino)ethoxy)propoxy)pentyloxy)phenyl)ethyl)-3-((4-methyl-5-(pyrimidin-4-yl)-4H-1,2,4-triazol-3-yl)methylamino)benzamide] | 89.7 | 90.6 | 76.2 | 90 | 28.7 | > 30 | – |
| C[C@H](NC(=O)c1cccc(NCc2nnc(-c3ccncn3)n2C)c1)c1cccc(OCCCCCCOCCOCCOCCCC(=O)Nc2cccc3c2CN(C2CCC(=O)NC2=O)C3=O)c1 (stereo partly drawn) [Compound D154, N-((1S)-1-(3-(6-(2-(2-(4-(2-(2,6-dioxopiperidin-3-yl)-1-oxoisoindolin-4-ylamino)-4-oxobutoxy)ethoxy)ethoxy)hexyloxy)phenyl)ethyl)-3-((4-methyl-5-(pyrimidin-4-yl)-4H-1,2,4-triazol-3-yl)methylamino)benzamide] | 25.1 | 19.5 | 9.15 | 4390 | 183 | > 30 | – |
| C[C@@H](NC(=O)c1cccc(NCc2nnc(-c3ccncn3)n2C)c1)c1cccc(OCCCCCCOCCOCCOCCC(=O)N2CCN(c3ccc4c(c3)CN(C3CCC(=O)NC3=O)C4=O)CC2)c1 (stereo partly drawn) [Compound D131, N-((1R)-1-(3-(6-(2-(2-(3-(4-(2-(2,6-dioxopiperidin-3-yl)-1-oxoisoindolin-5-yl)piperazin-1-yl)-3-oxopropoxy)ethoxy)ethoxy)hexyloxy)phenyl)ethyl)-3-((4-methyl-5-(pyrimidin-4-yl)-4H-1,2,4-triazol-3-yl)methylamino)benzamide] | 17.5 | 68.7 | 89.2 | 220 | 26.6 | > 30 | 0.24 |
| Cc1ncsc1-c1ccc(CNC(=O)[C@@H]2C[C@@H](O)CN2C(=O)[C@@H](NC(=O)CCCOCCOCCOCCCCCCCCOc2ccc([C@@H](C)NC(=O)c3cccc(NCc4nnc(-c5ccncn5)n4C)c3)cc2)C(C)(C)C)cc1 [Compound D148] | 46.7 | 21.2 | 0.218 | 100 | 14.1 | 8.31 | 2.57 |
| Cn1c(CNc2cccc(C(=O)NCc3cc(OCCCCCOCCCOCC(=O)Nc4cccc5c4CN(C4CCC(=O)NC4=O)C5=O)ccc3F)c2)nnc1-c1ccncn1 (stereo not shown) [Compound D197, N-(5-(5-(3-(2-(2-(2,6-dioxopiperidin-3-yl)-1-oxoisoindolin-4-ylamino)-2-oxoethoxy)propoxy)pentyloxy)-2-fluorobenzyl)-3-((4-methyl-5-(pyrimidin-4-yl)-4H-1,2,4-triazol-3-yl)methylamino)benzamide] | -6.8 | 27.7 | 54.5 | 5890 | 82.3 | > 30 | – |
